Data taken from ChEMBL document CHEMBL2157886, “Synthesis and evaluation of ¹⁸F-labeled styryltriazole and resveratrol derivatives for β-amyloid plaque imaging” (J Med Chem, 2012).
Values belong to the molecule of their own block, whether it stands above or below them.

What was measured:
[1] = Binding affinity to amyloid beta (1-42) aggregates
Brain [2] = assay: Ratio of drug uptake in BALB/c mouse brain after 5 mins to 30 mins; assay type: ADME, tissue-based; settings: in vivo
[3] = Displacement of [125I]TZDM from amyloid beta (1 to 42) aggregates after 3 hrs by gamma counting
Blood [4] = assay: Drug uptake in ICR mouse blood at 1.11 MBq, iv after 60 mins postinjection; assay type: ADME, organism-based; settings: in vivo, 1 h
Brain [5] = assay: Drug uptake in ICR mouse brain at 1.11 MBq, iv after 2 mins postinjection; assay type: ADME, organism-based; settings: in vivo
Muscle tissue [6] = assay: Drug uptake in ICR mouse muscle at 1.11 MBq, iv after 60 mins postinjection; assay type: ADME, organism-based; settings: in vivo, 1 h
Femur [7] = assay: Drug uptake in ICR mouse femur at 1.11 MBq, iv after 120 mins postinjection; assay type: ADME, organism-based; settings: in vivo, 2 h
Liver [8] = assay: Drug uptake in ICR mouse liver at 1.11 MBq, iv after 2 mins postinjection; assay type: ADME, organism-based; settings: in vivo
Kidney [9] = assay: Drug uptake in ICR mouse kidney at 1.11 MBq, iv after 30 mins postinjection; assay type: ADME, organism-based; settings: in vivo, 0.5 h
Muscle tissue [10] = assay: Drug uptake in ICR mouse muscle at 1.11 MBq, iv after 2 mins postinjection; assay type: ADME, organism-based; settings: in vivo
Brain [11] = assay: Ratio of drug uptake in mouse brain after 2 mins to 60 mins; assay type: ADME, tissue-based; settings: in vivo
[12] = Octanol-water partition coefficient, log P of the compound; assay type: physicochemical
Liver [13] = assay: Drug uptake in ICR mouse liver at 1.11 MBq, iv after 120 mins postinjection; assay type: ADME, organism-based; settings: in vivo, 2 h
Heart [14] = assay: Drug uptake in ICR mouse heart at 1.11 MBq, iv after 30 mins postinjection; assay type: ADME, organism-based; settings: in vivo, 0.5 h
Blood [15] = assay: Drug uptake in ICR mouse blood at 1.11 MBq, iv after 30 mins postinjection; assay type: ADME, organism-based; settings: in vivo, 0.5 h
Heart [16] = assay: Drug uptake in ICR mouse heart at 1.11 MBq, iv after 2 mins postinjection; assay type: ADME, organism-based; settings: in vivo
Brain [17] = assay: Drug uptake in ICR mouse brain at 1.11 MBq, iv after 120 mins postinjection; assay type: ADME, organism-based; settings: in vivo, 2 h
Liver [18] = assay: Drug uptake in ICR mouse liver at 1.11 MBq, iv after 30 mins postinjection; assay type: ADME, organism-based; settings: in vivo, 0.5 h
Femur [19] = assay: Drug uptake in ICR mouse femur at 1.11 MBq, iv after 2 mins postinjection; assay type: ADME, organism-based; settings: in vivo
Spleen [20] = assay: Drug uptake in ICR mouse spleen at 1.11 MBq, iv after 120 mins postinjection; assay type: ADME, organism-based; settings: in vivo, 2 h
Muscle tissue [21] = assay: Drug uptake in ICR mouse muscle at 1.11 MBq, iv after 30 mins postinjection; assay type: ADME, organism-based; settings: in vivo, 0.5 h
Kidney [22] = assay: Drug uptake in ICR mouse kidney at 1.11 MBq, iv after 120 mins postinjection; assay type: ADME, organism-based; settings: in vivo, 2 h
Blood [23] = assay: Drug uptake in ICR mouse blood at 1.11 MBq, iv after 120 mins postinjection; assay type: ADME, organism-based; settings: in vivo, 2 h
Lung [24] = assay: Drug uptake in ICR mouse lung at 1.11 MBq, iv after 2 mins postinjection; assay type: ADME, organism-based; settings: in vivo
Kidney [25] = assay: Drug uptake in ICR mouse kidney at 1.11 MBq, iv after 2 mins postinjection; assay type: ADME, organism-based; settings: in vivo
Blood [26] = assay: Drug uptake in ICR mouse blood at 1.11 MBq, iv after 2 mins postinjection; assay type: ADME, organism-based; settings: in vivo
Femur [27] = assay: Drug uptake in ICR mouse femur at 1.11 MBq, iv after 60 mins postinjection; assay type: ADME, organism-based; settings: in vivo, 1 h
Femur [28] = assay: Drug uptake in ICR mouse femur at 1.11 MBq, iv after 30 mins postinjection; assay type: ADME, organism-based; settings: in vivo, 0.5 h
Brain [29] = assay: Drug uptake in ICR mouse brain at 1.11 MBq, iv after 60 mins postinjection; assay type: ADME, organism-based; settings: in vivo, 1 h
Spleen [30] = assay: Drug uptake in ICR mouse spleen at 1.11 MBq, iv after 30 mins postinjection; assay type: ADME, organism-based; settings: in vivo, 0.5 h
Brain [31] = assay: Drug uptake in ICR mouse brain at 1.11 MBq, iv after 30 mins postinjection; assay type: ADME, organism-based; settings: in vivo, 0.5 h
Muscle tissue [32] = assay: Drug uptake in ICR mouse muscle at 1.11 MBq, iv after 120 mins postinjection; assay type: ADME, organism-based; settings: in vivo, 2 h
Spleen [33] = assay: Drug uptake in ICR mouse spleen at 1.11 MBq, iv after 2 mins postinjection; assay type: ADME, organism-based; settings: in vivo
Heart [34] = assay: Drug uptake in ICR mouse heart at 1.11 MBq, iv after 60 mins postinjection; assay type: ADME, organism-based; settings: in vivo, 1 h
Lung [35] = assay: Drug uptake in ICR mouse lung at 1.11 MBq, iv after 60 mins postinjection; assay type: ADME, organism-based; settings: in vivo, 1 h
Kidney [36] = assay: Drug uptake in ICR mouse kidney at 1.11 MBq, iv after 60 mins postinjection; assay type: ADME, organism-based; settings: in vivo, 1 h
Lung [37] = assay: Drug uptake in ICR mouse lung at 1.11 MBq, iv after 120 mins postinjection; assay type: ADME, organism-based; settings: in vivo, 2 h
Liver [38] = assay: Drug uptake in ICR mouse liver at 1.11 MBq, iv after 60 mins postinjection; assay type: ADME, organism-based; settings: in vivo, 1 h
Lung [39] = assay: Drug uptake in ICR mouse lung at 1.11 MBq, iv after 30 mins postinjection; assay type: ADME, organism-based; settings: in vivo, 0.5 h
Spleen [40] = assay: Drug uptake in ICR mouse spleen at 1.11 MBq, iv after 60 mins postinjection; assay type: ADME, organism-based; settings: in vivo, 1 h
Brain [41] = assay: Ratio of drug uptake in mouse brain after 2 mins to 30 mins; assay type: ADME, tissue-based; settings: in vivo
Heart [42] = assay: Drug uptake in ICR mouse heart at 1.11 MBq, iv after 120 mins postinjection; assay type: ADME, organism-based; settings: in vivo, 2 h

Compound: CN(C)c1ccc(-c2nc3ccc([125I])cc3s2)cc1
Ki [1]: 1.9 nM

Compound: CNc1ccc(-c2cn3c(n2)sc2cc(OC)ccc23)cc1
Ki [1]: 3.5 nM

Compound: COc1ccc2c(c1)sc1nc(-c3ccc(N[11CH3])cc3)cn12
Ratio (Brain [2]): 9.1

Compound: [11CH3]Nc1ccc(-c2nc3ccc(O)cc3s2)cn1
Ki [1]: 19.7 nM

Compound: CNc1ccc(-c2cn3c(n2)sc2cc(OCC[18F])ccc23)cc1
Ratio (Brain [2]): 5.6

The next lines start with the values.

Ki [3]: 4.95 nM
Compound: COc1cc(/C=C/c2ccc(F)cc2)cc(OC)c1

Drug uptake (Blood [4]): 0.43 % ID/g
Drug uptake (Brain [5]): 3.26 % ID/g
Drug uptake (Muscle tissue [6]): 0.74 % ID/g
Drug uptake (Femur [7]): 16.15 % ID/g
Drug uptake (Liver [8]): 14.35 % ID/g
Drug uptake (Kidney [9]): 2.86 % ID/g
Drug uptake (Muscle tissue [10]): 3.67 % ID/g
Ratio (Brain [11]): 2.9
logP [12]: 2.84
Drug uptake (Liver [13]): 4.47 % ID/g
Drug uptake (Heart [14]): 1.35 % ID/g
Drug uptake (Blood [15]): 0.98 % ID/g
Drug uptake (Heart [16]): 7.22 % ID/g
Drug uptake (Brain [17]): 1 % ID/g
Drug uptake (Liver [18]): 5.99 % ID/g
Drug uptake (Femur [19]): 1.88 % ID/g
Drug uptake (Spleen [20]): 0.97 % ID/g
Drug uptake (Muscle tissue [21]): 1.27 % ID/g
Drug uptake (Kidney [22]): 1.65 % ID/g
Drug uptake (Blood [23]): 0.38 % ID/g
Drug uptake (Lung [24]): 8.17 % ID/g
Drug uptake (Kidney [25]): 10.46 % ID/g
Drug uptake (Blood [26]): 2.08 % ID/g
Drug uptake (Femur [27]): 9.73 % ID/g
Drug uptake (Femur [28]): 5.24 % ID/g
Drug uptake (Brain [29]): 1.13 % ID/g
Drug uptake (Spleen [30]): 1.23 % ID/g
Drug uptake (Brain [31]): 2.09 % ID/g
Drug uptake (Muscle tissue [32]): 1.07 % ID/g
Drug uptake (Spleen [33]): 3.15 % ID/g
Drug uptake (Heart [34]): 0.56 % ID/g
Drug uptake (Lung [35]): 1.08 % ID/g
Drug uptake (Kidney [36]): 2.76 % ID/g
Drug uptake (Lung [37]): 1.16 % ID/g
Drug uptake (Liver [38]): 2.47 % ID/g
Drug uptake (Lung [39]): 1.72 % ID/g
Drug uptake (Spleen [40]): 0.84 % ID/g
Ratio (Brain [41]): 1.6
Drug uptake (Heart [42]): 0.61 % ID/g
Compound: COc1cc(/C=C/c2ccc(OCCC[18F])cc2)cc(OC)c1

Drug uptake (Blood [4]): 1.27 % ID/g
Drug uptake (Brain [5]): 5.38 % ID/g
Drug uptake (Muscle tissue [6]): 0.51 % ID/g
Drug uptake (Femur [7]): 1.54 % ID/g
Drug uptake (Liver [8]): 12.5 % ID/g
Drug uptake (Kidney [9]): 7.32 % ID/g
Drug uptake (Muscle tissue [10]): 2.44 % ID/g
Ratio (Brain [11]): 10.3
logP [12]: 1.74
Drug uptake (Liver [13]): 3.47 % ID/g
Drug uptake (Heart [14]): 1.32 % ID/g
Drug uptake (Blood [15]): 2.16 % ID/g
Drug uptake (Heart [16]): 3.8 % ID/g
Drug uptake (Brain [17]): 0.48 % ID/g
Drug uptake (Liver [18]): 7.59 % ID/g
Drug uptake (Femur [19]): 1.49 % ID/g
Drug uptake (Spleen [20]): 0.49 % ID/g
Drug uptake (Muscle tissue [21]): 0.74 % ID/g
Drug uptake (Kidney [22]): 1.86 % ID/g
Drug uptake (Blood [23]): 0.98 % ID/g
Drug uptake (Lung [24]): 5.73 % ID/g
Drug uptake (Kidney [25]): 7.32 % ID/g
Drug uptake (Blood [26]): 3.35 % ID/g
Drug uptake (Femur [27]): 0.94 % ID/g
Drug uptake (Femur [28]): 0.7 % ID/g
Drug uptake (Brain [29]): 0.52 % ID/g
Drug uptake (Spleen [30]): 0.85 % ID/g
Drug uptake (Brain [31]): 0.68 % ID/g
Drug uptake (Muscle tissue [32]): 0.4 % ID/g
Drug uptake (Spleen [33]): 2.36 % ID/g
Drug uptake (Heart [34]): 0.81 % ID/g
Drug uptake (Lung [35]): 1.04 % ID/g
Drug uptake (Kidney [36]): 3.7 % ID/g
Drug uptake (Lung [37]): 0.76 % ID/g
Drug uptake (Liver [38]): 3.47 % ID/g
Drug uptake (Lung [39]): 1.75 % ID/g
Drug uptake (Spleen [40]): 0.6 % ID/g
Ratio (Brain [41]): 7.9
Drug uptake (Heart [42]): 0.71 % ID/g
Compound: CN(C)c1ccc(/C=C/c2cn(CC[18F])nn2)cc1

Ki [3]: 0.74 nM
Compound: COc1cc(/C=C/c2ccc(OCCF)cc2)cc(OC)c1
